Data set [1] has as its system Leishmania infantum promastigotes (strain MHOM/MA/67/ITMAP-263). As to the kind of experiment: Tests of anti-leishmanial activity on promastigotes expressing the luciferase. It counts as cell-based. Particulars: result in words. The method, then:
Leishmanicidal activity of peptides was evaluated on the promastigote form of Leishmania infantum (strain MHOM/MA/67/ITMAP-263), responsible for visceral leishmaniosis.
Promastigotes were maintained at 26° C. by one or two weekly passages, depending on the number of parasites in the inoculum, in SDM 79 medium supplemented with 10 to 20% decomplemented fetal calf serum and […] porcine hemin and in the presence of 100 U/mL penicillin and 100 μg/mL streptomycin (Brun et al., 1979). Starting from an inoculum of 10^5 cells/mL in logarithmic growth phase, the promastigotes reached a cell density of 1 to 2×10^8 parasites/mL in stationary phase after 5 days of culture in 25 cm^2 culture flasks. Cell densities were determined by flow cytometry in the presence of propidium iodide on a FAC Scan cytometer (Excalibur, Becton Dickinson, Ivry, France).
The tests of anti-leishmanial activity were carried out with a parasite line expressing the luciferase. […]
After 72 hrs of incubation at 26° C., 50 μL of Steady-Glo lysis buffer (Promega) were added to each well. […] Emitted luminescence was measured with a luminescence plate reader (Victor, PerkinElmer). […] The percentage growth was calculated according to the following formula: % growth=[(L mean−bgd)peptide×100]/(L mean−bgd)negative control
where L mean: mean luminescence and bgd: background corresponding to the luminescence emitted by the culture medium. […]

Data set [2] can be described thus: Hemolytic test. The data set is classed as cell-based, rat. Particulars: rat erythrocytes (washed red blood cells), pH 7.4, rat erythrocytes, 1 hr at 37° C.; for CC50 at 1 hr: read-out: LC50 (hemolytic activity), unit inferred. The method, then: (§1) The hemolytic activity of the antimicrobial peptides was assessed using rat erythrocytes. Red blood cell hemolysis is manifested by the release into the reaction medium of hemoglobin, the concentration of which is determined spectrophotometrically at 450 nm.
(§2) Red blood cells were separated from plasma and white blood cells by centrifugation of blood (900×g, 10 min). The pellet containing red blood cells was washed three times with PBS buffer, pH 7.4. After counting on a Malassez cell, a stock solution of 4×10^8 red blood cells/mL was prepared in the same buffer. A series of concentrations of the peptides to be tested was prepared (2 to 400 μM).
(§3) The test was carried out as follows: 50 μL of the different peptide concentrations were added to 50 μL of the red blood cell suspension. After 1 hr of incubation at 37° C. followed by centrifugation (12,000×g, 15 sec), absorbance of the supernatant was measured at 450 nm. The negative control for this test (0% hemolysis) contained […] in place of the peptide solution. The positive control (100% hemolysis) contained 50 μL of 0.1% Triton X-100 in place of the peptide solution.
(§4) The LC50 value obtained is the mean of three experiments carried out in triplicate and corresponds to the peptide concentration inducing hemolysis of 50% of the cells.

Data set [3] relates to rat erythrocytes. As to the kind of experiment: Hemolytic test. It counts as cell-based. Particulars: for hemolytic activity (in words): rat erythrocytes, result in words. The method, then: as §1, §2, §3, §4
In data set [4] the test system is Leishmania infantum promastigote. Particulars: read-out: IC50 against the promastigote form; cited from earlier work.
Data set [5] relates to Leishmania infantum axenic amastigote. Particulars: read-out: IC50 against the axenic amastigote form; cited from earlier work.
Data set [6] has as its system THP-1 monocyte-derived macrophages. As to the kind of experiment: Cytotoxicity test on THP-1 human monocytes-derived macrophages. It counts as cell-based. Particulars: result in words. On the procedure: The viability of macrophages was ascertained using a trypan blue-based microassay. THP-1 cells from a culture suspension in mid-log phase of growth were plated at a density of 5×10^5 cells/mL in 96-well plates (100 μL/well, i.e., 5×10^4 cells/well) and differentiated as described above. After incubation for 72 hrs at 37° C. with 5% CO2, in the presence of peptide (60 μM to 7.5 μM, final concentrations), adherent macrophages were washed once with prewarmed RPMI 1640 medium and stained for 5 min, with 100 μL of trypan blue 2-fold diluted in RPMI 1640 medium. Wells were then washed twice with 100 μL of RPMI 1640 medium. Living white cells were microscopically counted in three focuses per well using a reticulated ocular.
The viability index (VI) was calculated for each peptide concentration using the following formula: VI=[N meanpeptide×100]/N meannegative control.
where N mean is the mean number of viable parasites. The negative control (100% growth) contained 20 μL of RPMI medium in place of the peptide solution.
The LC50 value, which corresponds to the peptide concentration inducing lysis of 50% of the cells, was determined from the viability indexes. Tests were carried out in sextuplicate for each peptide concentration and at least two independent experiments were performed to determine the LC50 value.

Data set [7] relates to yeasts. In words: Tests of antifungal activity (growth inhibition in YPD broth medium, MIC). It counts as cell-based. The method, then:
Three yeast strains were used: Saccharomyces cerevisiae, Candida albicans (ATCC 90028), Candida parapsilosis (ATCC 22019). These strains were first grown on YPD agar for a minimum of 48 hrs. Yeast suspensions were then prepared, exactly as for bacteria, and adjusted to 10^6 cfu/mL in YPD broth medium.
The antifungal activity test corresponds to the growth inhibition test in broth medium used for the bacteria (see above) in which MH medium was replaced by YPD medium. Fungal strains were incubated at 30° C.

Data set [8] relates to Gram-positive and Gram-negative bacterial strains. It counts as cell-based. An excerpt:
The following strains were used for the antibacterial activity tests: Escherichia coli (ATCC 25922 and ML-35p), Staphylococcus aureus (ATCC 25923 and ST1065), Enterococcus faecalis (ATCC 29212), Pseudomonas aeruginosa (ATCC 27853), Streptococcus pyogenes (ATCC 19615), Listeria ivanovii, Salmonella enterica (serotype Enteritidis), Acinetobacter baumannii (ATCC 19606) and Klebsiella pneumoniae (ATCC 13883). Two antibiotic-resistant strains were also used (S. aureus ATCC 43300 and ATCC BAA-44).
For each strain, a standard inoculum of approximately 10^6 bacteria/mL (exponential growth phase) was prepared. To this end, a colony isolated on LB agar previously inoculated with one of the strains was cultured in 4 mL of LB broth medium, except for S. pyogenes and L. ivanovii, which were grown in BHI (Brain Heart Infusion) from a colony isolated on BHI agar. Liquid cultures were then incubated for 2 to 3 hrs at 37° C. with shaking for the bacteria to reach exponential growth phase. […]
The minimum inhibitory concentration (MIC) of each peptide was determined by a test of growth inhibition in broth medium. […] Bacterial growth was determined by measuring OD at 630 nm (turbidity) on a plate reader. […]

Entries after “also recorded” stand apart in the source; their conditions may differ. Ends that are not written are not given here. Some results are limits rather than exact numbers.

On to “F-L-K-G-I-K-G-M-L-G-K-L-L (FLKGIKGMLGKLL-NH2) [[K^3, K^6, L^13]temporin-SHa]”, for which the “anti-leishmanial activity on L. infantum promastigotes (in words)” value in data set [1] was “approaches the cytotoxicity level of monocytes”.

For the substance “KGIVGMLGKLF-NH2 [[K^3]temporin-SHa(3-13)]”, in data set [2] (read-out: LC50 (hemolytic activity)), the HC50 at 1 hr is 618 µM. For the same substance, the “hemolytic activity (in words)” value in data set [3] is listed as “devoid of hemolytic activity”.

On to “FLKGIKGMLGKLF-NH2 [[K^3,K^6]temporin-SHa, F-L-K-G-I-K-G-M-L-G-K-L-F]”, for which, in data set [2], the CC50 at 1 hr is greater than 500 µM. Further, the “hemolytic activity (in words)” value in data set [3] is listed as “no hemolytic activity”.

Regarding “FLKGIVGMLGKLW-NH2 [[K^3,W^13]temporin-SHa, F-L-K-G-I-V-G-M-L-G-K-L-W]”, in data set [3], the “hemolytic activity (in words)” value is listed as “lower hemolytic activity; also recorded: lesser haemolytic”.

For the substance “FLKGIVGKLGKLF-NH2 [[K^3,K^8]temporin-SHa, F-L-K-G-I-V-G-K-L-G-K-L-F]”, in data set [2], the CC50 at 1 hr is greater than 500 µM. Moreover, in data set [3], the “hemolytic activity (in words)” value was “no hemolytic activity”.

Turning to “FLKGIVGKLGKLL-NH2 [[K^3, K^8,L^13]temporin-SHa, F-L-K-G-I-V-G-K-L-G-K-L-L]”, the CC50 at 1 hr in data set [2] is greater than 500 µM. Also, the “hemolytic activity (in words)” value in data set [3] is “no hemolytic activity”.

With “FLSGIVGMLGKLF [temporin-SHa, F-L-S-G-I-V-G-M-L-G-K-L-F]”, the IC50 in data set [4] was 18.1 µM; in data set [5], 22.8 µM.

Take “FLKGIVGMLGKLL-NH2 [[K^3,L^13]temporin-SHa, F-L-K-G-I-V-G-M-L-G-K-L-L]”: the “hemolytic activity (in words)” value in data set [3] is “lower hemolytic activity; also recorded: lesser haemolytic”. Besides, the “fold lower hemolytic activity than [K^3]temporin-SHa” value in data set [3] (relative to [K^3]temporin-SHa) is on record as 2 fold. In data set [6], the “cytotoxicity against the host cell (macrophage) (in words)” value is “reduced cytotoxicity”.

FLKGIVGMLGKLF-NH2 [[K^3]temporin-SHa]: the MIC in data set [7] lay in the range of 3 to 6 µM; in data set [8] (Gram-positive (including antibiotic-resistant S. aureus strains) and Gram-negative bacterial strains of clinical interest), 3 to 6 µM. For the same substance, the “antimicrobial activity (in words)” value in data set [8] (bacteria and yeasts tested, result in words) is listed as “more potent”.

Source of the values: patent publication US9932376B2, “Analogues of temporin-SHa and uses thereof” (UNIVERSITE PIERRE ET MARIE CURIE (PARIS 6), priority 2013, dated 2018).
